Values joined by “and” are separate entries in the source; they are usually repeats but may differ in a detail not shown here. Identical values can stand only once.

The first assay deals with TEAD2 (Homo sapiens (Human), UniProt Q15562). Kind of assay: In vitro palmitoylation (TEAD2 autopalmitoylation, streptavidin blot). The assay is classed as biochemical. To be noted: Table 2, result printed in words. As for the experimental part: Recombinant GST-TEAD2 or His6TEAD2 (500 ng) protein was pre-incubated with the compounds at indicated concentrations for 15 min. and then incubated with 1 μM of alkyne palmitoyl-5 CoA (Cayman Chemical) for 30 min or 50 mM MES, pH 6.4, followed by Click reaction with biotin-azide as previously described (Zheng, B. et al., J. Am. Chem. Soc., 2013, 135, 7082-7085). Click reaction was performed with 100 μM biotin-azide, 1 mM tris(2-carboxyethyl) phosphine hydrochloride (TCEP), 100 μM tris[(1-benzyl-1H-1,2,3-triazol-4-yl) methyl] amine (TBTA) and 1 mM CuSO4 for 1 h at RT.
TEAD2, sequence (Q15562 whole entry): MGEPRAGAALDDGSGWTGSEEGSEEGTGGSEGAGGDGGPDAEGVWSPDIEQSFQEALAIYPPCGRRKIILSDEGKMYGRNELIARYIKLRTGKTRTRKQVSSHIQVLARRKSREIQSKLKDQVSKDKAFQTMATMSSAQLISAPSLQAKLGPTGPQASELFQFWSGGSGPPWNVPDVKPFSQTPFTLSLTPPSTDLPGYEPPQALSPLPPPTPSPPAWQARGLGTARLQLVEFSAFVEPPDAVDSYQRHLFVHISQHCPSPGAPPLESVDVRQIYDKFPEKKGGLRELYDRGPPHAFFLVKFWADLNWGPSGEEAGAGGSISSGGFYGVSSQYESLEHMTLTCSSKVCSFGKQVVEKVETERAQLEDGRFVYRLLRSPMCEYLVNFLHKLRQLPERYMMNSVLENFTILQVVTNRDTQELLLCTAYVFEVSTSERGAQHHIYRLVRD
The reactions were terminated by the addition of 12 μL of 6×SDS-sample loading buffer (50 mM Tris-HCl, pH 6.8, 6% SDS, 48% Glycerol, 0.03% Bromophenol Blue, 30 mM EDTA, 9% MeSH). Samples were analysed by SDS-PAGE and Western blot was performed by probing with streptavidin HRP and histidine HRP antibodies independently. Bands intensity obtained from streptavidin blot were quantified using BIORAD, Gel doc system and the percentage of inhibition of Tead2 auto palmitoylation is determined by comparing to the DMSO control treated samples.
These compounds were tested for activity in inhibiting TEAD2 palmitoylation in the assay described above.
For the compound `O=C(O)c1ccccc1Nc1ccc(-c2cnc(-c3ccccc3)s2)cc1` [Compound 68], the “inhibition of TEAD2 palmitoylation (YES/NO)” value was “YES”.

Staying with this assay, now noted: compound at 10 μM; Table 2.
`COC(=O)c1ccccc1Nc1ccc(C(=O)Nc2ccc(C34CC5CC(CC(C5)C3)C4)cc2)cc1` [Compound 4] gave an inhibition at 10 µM of 0%.

The compound `COC(=O)c1ccccc1Nc1ccc(C(=O)Nc2ccc(C34CC5CC(CC(C5)C3)C4)cc2Br)cc1` [Compound 5] displayed an inhibition at 10 µM of 0%.

The compound `COC(=O)c1ccccc1Nc1ccc(C(=O)Nc2ccc(C34CC5CC(CC(C5)C3)C4)cc2Cl)cc1` [Compound 6] returned an inhibition at 10 µM of 0%.

`N#Cc1ccccc1Nc1ccc(Nc2ccc(C34CC5CC(CC(C5)C3)C4)cc2Cl)cc1` [Compound 7] yielded an inhibition at 10 µM of 30%.

As for `Clc1cc(C23CC4CC(CC(C4)C2)C3)ccc1Nc1ccc(Cn2cncn2)cc1` [Compound 9], at 10 µM the inhibition was 76%.

With `Clc1cc(C23CC4CC(CC(C4)C2)C3)ccc1Nc1ccc(Nc2ccccn2)cc1` [Compound 10], at 10 µM the inhibition was 0%.

Compound `O=C1CC[n+]2ccccc2N1c1ccc(Nc2ccc(C34CC5CC(CC(C5)C3)C4)cc2Cl)cc1` [Compound 11] registered an inhibition at 10 µM of 0%.

With `CN(c1ccc(Nc2ncccc2C(=O)OCCO)cc1)c1ccc(C23CC4CC(CC(C4)C2)C3)cc1Cl` [Compound 12], the inhibition at 10 µM was found to be 85%.

Consider `Cc1ccccc1Nc1ccc(Nc2ccc(C34CC5CC(CC(C5)C3)C4)cc2)cc1` [Compound 13], for which at 10 µM the inhibition was 26%.

As for `CCOC(=O)/C=C/c1ccccc1Nc1ccc(Nc2ccc(C34CC5CC(CC(C5)C3)C4)cc2)cc1` [Compound 14], at 10 µM the inhibition was 0%.

Compound `O=C1CCc2ccccc2N1c1ccc(Nc2ccc(C34CC5CC(CC(C5)C3)C4)cc2)cc1` [Compound 15] showed an inhibition at 10 µM of 12%.

Compound `CCOC(=O)c1cccc(Nc2ccc(C(=O)Nc3ccc(C45CC6CC(CC(C6)C4)C5)cc3)cc2)n1` [Compound 16] registered an inhibition at 10 µM of 0%.

`COC(=O)c1cccnc1Nc1ccc(Nc2ccc(C34CC5CC(CC(C5)C3)C4)cc2Cl)cc1` [Compound 17] showed an inhibition at 10 µM of 7%.

Take `O=S1(=O)N=C(Nc2ccc(Nc3ccc(C45CC6CC(CC(C6)C4)C5)cc3Cl)cc2)c2ccccc21` [Compound 18]: 10 µM produced 35% inhibition.

For `COc1cccc2c1S(=O)(=O)N=C2Nc1ccc(C23CC4CC(CC(C4)C2)C3)cc1` [Compound 19], testing at 10 µM gave an inhibition of 35%.

`O=C(O)c1ccccc1Nc1ccc(Nc2ccc(C34CC5CC(CC(C5)C3)C4)cc2)cc1` [Compound 24, 2-((4-((4-((3R,5R)-adamantan-1-yl)phenyl)amino)phenyl)amino)benzoic acid] yielded an inhibition at 10 µM of 56%.

Take `O=C(O)c1ccccc1Nc1cccc(Nc2ccc(C34CC5CC(CC(C5)C3)C4)cc2)c1` [Compound 25]: at 10 µM the inhibition was 90%.

As to `O=C(O)c1ccccc1Nc1cc(Nc2ccc(C34CC5CC(CC(C5)C3)C4)cc2)cc(C(F)(F)F)c1` [Compound 26], testing at 10 µM gave an inhibition of 90%.

In turn, `O=C(O)c1cccnc1Nc1cc(Nc2ccc(C34CC5CC(CC(C5)C3)C4)cc2)cc(C(F)(F)F)c1` [Compound 27] gave an inhibition at 10 µM of 90%.

Turning to `Cc1ccc(Nc2cc(Nc3ccc(C45CC6CC(CC(C6)C4)C5)cc3)cc(C(F)(F)F)c2)c(C(=O)O)c1` [Compound 28], the inhibition at 10 µM amounted to 10%.

In turn, `O=C(O)c1cc(C(F)(F)F)ccc1Nc1cc(Nc2ccc(C34CC5CC(CC(C5)C3)C4)cc2)cc(C(F)(F)F)c1` [Compound 29] returned an inhibition at 10 µM of 90%.

`O=C(O)c1ccccc1Nc1cc(F)cc(Nc2ccc(C34CC5CC(CC(C5)C3)C4)cc2)c1` [Compound 30]: the inhibition at 10 µM was 91%.

The compound `Cc1cc(Nc2ccc(C34CC5CC(CC(C5)C3)C4)cc2)cc(Nc2ncccc2C(=O)O)c1` [Compound 32] showed an inhibition at 10 µM of 60%.

With `O=C(O)c1ccccc1Nc1cc(Nc2ccc(C34CC5CC(CC(C5)C3)C4)cc2Cl)cc(C(F)(F)F)c1` [Compound 33], the inhibition at 10 µM came to 50%.

Regarding `O=C(O)c1ccccc1Nc1ccc(Nc2ccc(C34CC5CC(CC(C5)C3)C4)cc2)nc1` [Compound 34], the inhibition at 10 µM came out at 14%.

For the compound `O=C(Nc1ccc(C23CC4CC(CC(C4)C2)C3)cc1)c1ccc(Nc2ccccc2C(=O)O)cc1` [Compound 35], the “% of inhibition of TEAD2 palmitoylation at 10 μM” value (“% of inhibition … at 10 μM” below) was 63% and 86%.

On to `O=C(Nc1ccc(C23CC4CC(CC(C4)C2)C3)cc1Br)c1ccc(Nc2ccccc2C(=O)O)cc1` [Compound 36], for which the inhibition at 10 µM came out at 100%.

`O=C(Nc1ccc(C23CC4CC(CC(C4)C2)C3)cc1Cl)c1ccc(Nc2ccccc2C(=O)O)cc1` [Compound 37] registered an inhibition at 10 µM of 30%.

For `O=C(O)[C@@H]1CCCN1C(=O)Nc1ccc(C23CC4CC(CC(C4)C2)C3)cc1` [Compound 38], the inhibition at 10 µM came to 7%.

Consider `O=C(O)C1CCCC1Nc1ccc(Nc2ccc(C34CC5CC(CC(C5)C3)C4)cc2Cl)cc1` (centres unmarked) [Compound 39], for which the inhibition at 10 µM is 59%.

As to `O=C(O)C1CCCC1Nc1ccc(Nc2ccc(C34CC5CC(CC(C5)C3)C4)cc2Cl)cc1` (centres unmarked) [Compound 40], the “% of inhibition … at 10 μM” value is listed as 43%.

On to `CC(C)c1ccccc1-c1ccc(Nc2ccc(Nc3ccccc3C(=O)O)cc2)c(Cl)c1` [Compound 41], for which the inhibition at 10 µM was determined as 52%.

`O=C(O)C1CCCCC1Nc1ccc(Nc2ccc(C34CC5CC(CC(C5)C3)C4)cc2Cl)cc1` (centres unmarked) [Compound 46] registered an inhibition at 10 µM of 76%.

On to `O=C(O)C1CCCCC1Nc1ccc(Nc2ccc(C34CC5CC(CC(C5)C3)C4)cc2Cl)cc1` (centres unmarked) [Compound 47], for which the “% of inhibition … at 10 μM” value amounted to 83%.

Take `O=C(O)[C@@H]1CCCN1C(=O)c1ccc(Nc2ccc(C34CC5CC(CC(C5)C3)C4)cc2Cl)cc1` [Compound 48]: the inhibition at 10 µM was 87%.

Consider `O=C(O)[C@@H]1CCCN1C(=O)Nc1ccc(Nc2ccc(C34CC5CC(CC(C5)C3)C4)cc2Cl)cc1` [Compound 50], for which the inhibition at 10 µM was found to be 0%.

`Cc1ccccc1-c1ccc(Nc2ccc(Nc3ccccc3C(=O)O)cc2)c(Cl)c1` [Compound 51] gave an inhibition at 10 µM of 79%.

`O=C(O)[C@H]1CCCN1C(=O)Nc1ccc(Nc2ccc(C34CC5CC(CC(C5)C3)C4)cc2Cl)cc1` [Compound 52] displayed an inhibition at 10 µM of 79%.

`O=C(O)c1ccccc1Nc1ccc(Nc2ccc(-c3ccccc3C(F)(F)F)cc2Cl)cc1` [Compound 53] displayed an inhibition at 10 µM of 5%.

Take `COc1ccccc1-c1ccc(Nc2ccc(Nc3ccccc3C(=O)O)cc2)c(Cl)c1` [Compound 56]: the inhibition at 10 µM is 0%.

With `O=C(O)c1ccccc1Nc1ccc(Nc2ccc(-c3ccccc3Cl)cc2Cl)cc1` [Compound 58], the inhibition at 10 µM is 60%.

Take `O=C(O)c1cccnc1Nc1ccc(Nc2ccc(C34CC5CC(CC(C5)C3)C4)cc2Cl)cc1` [Compound 59]: the inhibition at 10 µM was found to be 99%.

The compound `O=C(O)c1cccnc1Nc1ccc(C23CC4CC(CC(C4)C2)C3)cc1Cl` [Compound 60] came in with an inhibition at 10 µM of 100%.

`Cc1ccccc1-c1cc(Cl)c(Nc2ccc(Nc3ccccc3C(=O)O)cc2)cc1C` [Compound 61] had an inhibition at 10 µM of 70%.

In turn, `O=C(O)c1ccccc1Nc1ccnc(Nc2ccc(C34CC5CC(CC(C5)C3)C4)cc2Cl)n1` [Compound 62] yielded an inhibition at 10 µM of 65%.

`O=C(O)C1CCCC1Nc1cc(Nc2ccc(C34CC5CC(CC(C5)C3)C4)cc2Cl)cc(C(F)(F)F)c1` (centres unmarked) [Compound 64] yielded an inhibition at 10 µM of 0%.

`O=C(O)C1CCCC1Nc1ccc(C23CC4CC(CC(C4)C2)C3)cc1` (centres unmarked) [Compound 65]: the inhibition at 10 µM came out at 74%.

Regarding `O=C(O)C1CCCCC1Nc1ccc(C23CC4CC(CC(C4)C2)C3)cc1` (centres unmarked) [Compound 66], the inhibition at 10 µM worked out at 25%.

The compound `CC(C)(C)OC(=O)N(c1cnc(Nc2ccc(C34CC5CC(CC(C5)C3)C4)cc2Cl)cn1)c1ccccc1C(=O)O` [Compound 74] showed an inhibition at 10 µM of 31%.

As to `O=C(O)c1cnccc1Nc1ccc(Nc2ccc(C34CC5CC(CC(C5)C3)C4)cc2Cl)cc1` [Compound 75], testing at 10 µM gave an inhibition of 63%.

`CC(C)(C)OC(=O)N(c1ccc(Nc2ccc(C34CC5CC(CC(C5)C3)C4)cc2Cl)cn1)c1ccccc1C(=O)O` [Compound 76] yielded an inhibition at 10 µM of 34%.

In turn, `O=C(N[C@H]1CCC[C@H]1C(=O)O)c1ccc(Nc2ccc(C34CC5CC(CC(C5)C3)C4)cc2Cl)cc1` [Compound 77] returned an inhibition at 10 µM of 52%.

The compound `Cc1cc(C23CC4CC(CC(C4)C2)C3)cc(C)c1Nc1ccc(Nc2ccccc2C(=O)O)cc1` [Compound 79] showed an inhibition at 10 µM of 45%.

In turn, `O=C(O)c1ccccc1Nc1ccc(Nc2ccc(C34CC5CC(CC(C5)C3)C4)cc2)cc1C(F)(F)F` [Compound 80] registered an inhibition at 10 µM of 40%.

Consider `O=C(O)c1ccc(Nc2ccc(Nc3ccc(C45CC6CC(CC(C6)C4)C5)cc3)cc2)cc1` [Compound 81], for which the inhibition at 10 µM is 78%.

For the compound `O=C(O)c1ncccc1Nc1ccc(Nc2ccc(C34CC5CC(CC(C5)C3)C4)cc2Cl)cc1` [Compound 82], the inhibition at 10 µM is 67%.

In turn, `O=C(O)c1ccncc1Nc1ccc(Nc2ccc(C34CC5CC(CC(C5)C3)C4)cc2Cl)cc1` [Compound 83] showed an inhibition at 10 µM of 65%.

On to `O=C(O)c1cccc(Nc2ccc(Nc3ccc(C45CC6CC(CC(C6)C4)C5)cc3Cl)cc2)c1` [Compound 84], for which testing at 10 µM gave an inhibition of 98%.

What is called inhibition is the change of the read-out against control, counted positive when it falls. A lower inhibition goes with little suppression.

The record behind these values is patent US12187722B2, “Small molecule inhibitors of TEAD transcription factors” (The General Hospital Corporation, priority 2019, dated 2025).
